Patent publication US10973840B2, “Methods of sensitizing tumor cells to weak base chemotherapeutic drugs” (SOCPRA SCIENCES SANTÉ ET HUMAINES S.E.C., priority 2017, dated 2021)
Read-outs that look alike come from different tables or passages of the source.

Columns and labels:
Assay type in all cases: cell-based, human
[1] = system: HT-1080 fibrosarcoma cells; test: MTT cell viability assay, HT-1080; settings: for Fold change: HT-1080, IC50 at 1% O2 to IC50 at 21% O2; for increase in resistance toward the drug by hypoxia: HT-1080 cells (so in the source), 1% O2 vs 21% O2; for IC50: Homo sapiens, HT-1080, 72 h
Description: (§1) Cells (5×10^3) were cultured in 96-well plates and pre-incubated under 21% O2 or 1% O2 for 4 h following the addition of drugs for 72 h. Cell viability was measured using the 3-(4,5-dimethylthiazol-2-yl)-2,5-diphenyltetrazolium bromide (MTT) dye (Life Technologies) according to manufacturer's instructions. Because hypoxic conditions may affect the reduction of MTT to formazan, incubation of all cell cultures with MTT were performed under normoxic conditions. Each experiment was performed in triplicate and at least three independent experiments were performed. Log-scale dose-response data were plotted on a graph and a three-parameter non-linear regression was applied to determine IC50 values. For calculation of the IC50s, both normoxic and hypoxic drug-treated samples were normalized with their untreated counterpart.
(§2) To assess the role of pH in hypoxia-induced resistance to anthracyclines, the human breast cancer MDA-MB-231 and fibrosarcoma HT-1080 cell lines were incubated in the presence or absence of the commonly used anthracycline drugs, doxorubicin (Dox), daunorubicin (Dau) and the anthracycline analog drug, mitoxantrone (Mtx), under hypoxic (1% O2) or normoxic (21% O2) conditions for 72 hours. Cell viability was then assessed using the MTT assay. The impact of extracellular pH on Dox uptake by HT-1080 was also assessed.

[2] = system: MDA-MB-231 breast cancer cells; test: MTT cell viability assay, MDA-MB-231; settings: for IC50: Homo sapiens, MDA-MB-231, 72 h; for Fold change: MDA-MB-231, IC50 at 1% O2 to IC50 at 21% O2
Description: as §1, §2

MDA-MB-231 cells [3] = test: Intracellular pH measurement (HPTS/SNARF-1) by confocal microscopy, MDA-MB-231; settings: MDA-MB-231, 1% O2, 4 h; for effect on hypoxia-induced intravesicular acidification: Baf 100 nM, Cq 10 μM
Description: (§3) The pH sensing ratiometric dyes SNARF-1 and HPTS (Life Technologies) were used simultaneously for pH measurement of both cytoplasmic (C-SNARF-1) and endosomal/lysosomal (HPTS) compartments as previously described^30. Briefly, cells were cultured in 35 mm petri dishes (BD Biosciences) and used at 50% confluence. For endocytic labeling, cells were incubated overnight with HPTS (1 mM), washed, followed by a 20-min incubation with SNARF-1 (5 μM) to label the cytoplasmic compartment. Living cells were analyzed using an Olympus Fluoview™ FV1000 confocal microscope. Fluorescence emissions of both pH-sensing probes were recorded and subsequently analyzed as described^30.

HT-1080 cells [4] = test: Intracellular localization of Dox by confocal live-cell imaging, HT-1080; settings: for effect on hypoxia-induced Dox sequestration within endosomes: HT-1080, 1% O2, Cq 10 μM, Baf 100 nM
Description: (§4) Cells were cultured in 25 mm-diameter glass coverslips (Thermo Fisher Scientific) and incubated under various conditions (as indicated in the FIG. legends). Cells were then incubated for 2 h in a medium containing Dox (2 μM). After the incubation period, cells were washed to remove excess Dox and left in drug-free media for 10 min. […] Coverslips were mounted on glass slides and placed on a 37° C. warmed stage of an Olympus Fluoview™ FV1000 (Olympus, Tokyo, Japan) confocal laser scanning microscope. Dox was excited with a green helium neon laser (543 nm) and emitted fluorescence intensity was measured. Images were acquired on the same day, typically from 10-20 cells of similar size from each experimental condition, using identical instrument settings.

HT-1080 cells [5] = test: Intracellular pH measurement (HPTS/SNARF-1) by confocal microscopy, HT-1080; settings: HT-1080, 1% O2, 4 h; for effect on hypoxia-induced intravesicular acidification: Baf 100 nM, Cq 10 μM
Description: as §3

MDA-MB-231 cells [6] = test: Intracellular localization of Dox by confocal live-cell imaging, MDA-MB-231; settings: MDA-MB-231, 1% O2; Cq 10 μM, Baf 100 nM
Description: as §4

NHE6 = NHE6 localization (cell-surface biotinylation, EEA1 immunofluorescence) in HT-1080
Description: Biotinylation steps were performed at […] Cells were grown on circular 15-mm diameter glass coverslips (Thermo Fisher Scientific) and incubated at 21% or 1% O2. Cells were then washed with PBS containing 1 mM CaCl2 and 0.5 mM MgCl2 (PBSCM) and incubated for 5 min with 0.3 mg/ml of EZ-Link Sulfo-NHS-SS-Biotin (Pierce) in PBSCM. Unreacted biotin was quenched using 100 mM glycine. Cells were fixed for 10 min at room temperature using 1% PFA in PBS. Prior to staining, cells were blocked with 5% of BSA for 1 h at room temperature. Biotinylated cells were stained with 5 μg/ml Streptavidin Texas Red (Invitrogen) for 1 h at 4° C. Coverslips were washed and mounted on a microscope slide using Vectashield mounting media (Vector labs).
Cultured cells were fixed with 1% PFA for 10 min at room temperature, permeabilized with saponin (0.05% in PBS) for 20 min, and blocked with 2% BSA in PBS for 30 min. Cells were then incubated with the appropriate primary and secondary antibodies as follows: anti-EEA1 (1/500), anti-Rab7 (1/500) and fluorophore-conjugated secondary antibodies (1/1000). Images were recorded using an Olympus Fluoview™ FV1000 confocal microscope using a 63× oil immersion objective.

NHE6-RACK1 interaction = test: Co-immunoprecipitation of NHE6 with RACK1 in HT-1080; settings: HT-1080, PDBu 100 nM
Description: Cells were lysed on ice in NP-40-containing buffer (50 mM Tris-HCl pH 8.0, 150 mM NaCl, 1% NP-40, 5 mM EDTA, phosphatase and protease inhibitors). Cell lysates were centrifuged at 13,000 rpm at 4° C. and protein concentration determined using the BCA protein assay (Thermo Fisher Scientific). After a pre-clearing step with protein A/G-agarose beads (GE Healthcare), protein complexes were immunoprecipitated overnight at 4° C. Samples were incubated in SDS-loading buffer for 30 minutes at room temperature to avoid transmembrane protein aggregates upon heating in a boiling water bath. Proteins were separated by SDS-PAGE electrophoresis, transferred to a PVDF membrane and immunoblotting was performed as described, using anti-NHE6 (1:1000), anti-NHE9 (1:1000) anti-RACK1 (1:2000), anti-tubulin (1:5000), anti-actin (1:5000) anti-HA (1:1000), anti-PKC (1:200), anti-phospho PKC substrate (1:1000), anti-LAMP2 (1:200), anti-P-glycoprotein (1:200) and HRP-conjugated secondary antibodies (1/10 000)^66.

Q: What does the source list for O=C1c2c(O)ccc(O)c2C(=O)c2c(NCCNCCO)ccc(NCCNCCO)c21 [Mtx, mitoxantrone]?
A: Fold change [1]: 4.9 fold; increase in resistance toward the drug by hypoxia [1]: 5.0 fold; IC50 ([1]; HT-1080, 1% O2, 72 h, read-out: IC50 of anthracyclines): 451 nM; IC50 ([1]; HT-1080, 21% O2, 72 h, read-out: IC50 of anthracyclines): 93.5 nM; IC50 ([2]; MDA-MB-231, 1% O2, 72 h, read-out: IC50 of anthracyclines): 752 nM; IC50 ([2]; MDA-MB-231, 21% O2, 72 h, read-out: IC50 of anthracyclines): 152 nM; Fold change [2]: 5.0 fold

Q: With COc1cccc2c1C(=O)c1c(O)c3c(c(O)c1C2=O)C[C@@](O)(C(C)=O)C[C@@H]3O[C@H]1C[C@H](N)[C@H](O)[C@H](C)O1 [Dau, daunorubicin] as the compound, how does the Fold change [1] read?
A: The Fold change was 8.1 fold.

Q: And the “increase in resistance toward the drug by hypoxia” value [1]?
A: The value was 4.7 fold.

Q: What about the IC50 ([1]; read-out: IC50 of anthracyclines, HT-1080, 1% O2, 72 h) of the same compound?
A: Its IC50 is 814 nM.

Q: And the IC50 ([1]; read-out: IC50 of anthracyclines, HT-1080, 21% O2, 72 h)?
A: The IC50 was 102 nM.

Q: What about the IC50 ([2]; read-out: IC50 of anthracyclines, MDA-MB-231, 1% O2, 72 h) of the same compound?
A: The IC50 was 921 nM.

Q: And the IC50 ([2]; read-out: IC50 of anthracyclines, MDA-MB-231, 21% O2, 72 h)?
A: The IC50 was 199 nM.

Q: What about the Fold change [2] of the same compound?
A: The Fold change was 4.7 fold.

Q: With CCN(CC)CCCC(C)Nc1ccnc2cc(Cl)ccc12 (centres unmarked) [Cq, chloroquine] as the compound, how does the “effect on hypoxia-induced intravesicular acidification” value (MDA-MB-231 cells [3]) read?
A: Its value is “prevented”.

Q: And the “effect on hypoxia-induced Dox sequestration within endosomes” value (HT-1080 cells [4])?
A: Its value is “abolished hypoxia-induced Dox sequestration within endosomes”.

Q: What about the “effect on hypoxia-induced intravesicular acidification” value (HT-1080 cells [5]) of the same compound?
A: The value was “prevented”.

Q: What about the “effect on hypoxia-induced Dox sequestration within endosomes” value (MDA-MB-231 cells [6]) of the same compound?
A: Its value is “abolished hypoxia-induced Dox sequestration within endosomes”.

Q: What does the source list for CCN(c1nc(N)c(C(=O)NC(=N)N)nc1Cl)C(C)C [EIPA]?
A: effect on hypoxia-induced increase in cytosolic pH (MDA-MB-231 cells [3]; EIPA 25 μM): prevented; effect on hypoxia-induced increase in cytosolic pH (HT-1080 cells [5]; EIPA 25 μM): prevented

Q: Which “Dox within the nucleus” value (HT-1080 cells [4]; HT-1080, 1% O2, PKC inhibition (GF-109203x 200 nM)) does the source give for CN(C)CCCn1cc(C2=C(c3c[nH]c4ccccc34)C(=O)NC2=O)c2ccccc21 [GF109203X] here?
A: Its value is “promoted the accumulation of Dox in the nuclear compartment”.

Q: What about the “endosomal/lysosomal pH under hypoxic conditions” value (HT-1080 cells [5]; PKC inhibition (GF-109203x 200 nM)) of the same compound?
A: The value was “partial recovery of normal pH values”.

Q: And the “hypoxia-induced NHE6 relocalization” value (NHE6; HT-1080, 1% O2, 4 h, GF-109203x 200 nM)?
A: The value was “blocked”.

Q: Which “relocalization of NHE6 from endosomes to the plasma membrane” value (NHE6; HT-1080, normoxia, PDBu 100 nM) does the source give for CCCC(=O)O[C@@H]1[C@@H](C)[C@@]2(O)[C@@H](C=C(CO)C[C@]3(O)C(=O)C(C)=C[C@@H]23)[C@@H]2C(C)(C)[C@]12OC(=O)CCC [PDBu, phorbol-12,13-dibutyrate] here?
A: Its value is “promoted”.

Q: What about the “association of NHE6 with RACK1” value (NHE6-RACK1 interaction) of the same compound?
A: Its value is “promoted”.

Q: For CO/C1=C\C(C)=C\[C@@H](C)[C@@H](O)[C@@H](C)C/C(C)=C/C=C/[C@H](OC)[C@@H]([C@@H](C)[C@@H](O)[C@H](C)[C@@]2(O)C[C@@H](O)[C@H](C)[C@@H](C(C)C)O2)OC1=O [Baf, bafilomycin A1], which “effect on hypoxia-induced intravesicular acidification” value (MDA-MB-231 cells [3]) is on record?
A: The value was “prevented”.

Q: And the “effect on hypoxia-induced Dox sequestration within endosomes” value (HT-1080 cells [4])?
A: Its value is “abolished hypoxia-induced Dox sequestration within endosomes”.

Q: And the “effect on hypoxia-induced intravesicular acidification” value (HT-1080 cells [5])?
A: Its value is “prevented”.

Q: And the “effect on hypoxia-induced Dox sequestration within endosomes” value (MDA-MB-231 cells [6])?
A: Its value is “abolished hypoxia-induced Dox sequestration within endosomes”.
